Test results published in patent US20240246937A1 (MERCK SHARP & DOHME LLC, priority 2021, published 2024).

Each compound was assayed against recombinant IL4I1 (Homo sapiens (Human), UniProt Q96RQ9) (assay: IL4I1 Enzymatic Assay (Amplex Red/HRP coupled fluorescence detection of H2O2)). Conditions: 240 min; recombinant IL4I1, four-hour pre-incubation with compound.
Type: biochemical
Method in brief: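 Recombinant human IL4I1 (1 nM final) pre-incubated 4 h with compound at ambient temperature in 50 mM Hepes pH 7.0, 0.005% Tween20. Started with 1 mM each Phe/Tyr/Trp plus Amplex Red/HRP; H2O2-derived resorufin fluorescence read after 120 min; EC50 from ten-point 1:3 titration, four-parameter fit.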

recombinant IL4I1, sequence (Q96RQ9 22-567): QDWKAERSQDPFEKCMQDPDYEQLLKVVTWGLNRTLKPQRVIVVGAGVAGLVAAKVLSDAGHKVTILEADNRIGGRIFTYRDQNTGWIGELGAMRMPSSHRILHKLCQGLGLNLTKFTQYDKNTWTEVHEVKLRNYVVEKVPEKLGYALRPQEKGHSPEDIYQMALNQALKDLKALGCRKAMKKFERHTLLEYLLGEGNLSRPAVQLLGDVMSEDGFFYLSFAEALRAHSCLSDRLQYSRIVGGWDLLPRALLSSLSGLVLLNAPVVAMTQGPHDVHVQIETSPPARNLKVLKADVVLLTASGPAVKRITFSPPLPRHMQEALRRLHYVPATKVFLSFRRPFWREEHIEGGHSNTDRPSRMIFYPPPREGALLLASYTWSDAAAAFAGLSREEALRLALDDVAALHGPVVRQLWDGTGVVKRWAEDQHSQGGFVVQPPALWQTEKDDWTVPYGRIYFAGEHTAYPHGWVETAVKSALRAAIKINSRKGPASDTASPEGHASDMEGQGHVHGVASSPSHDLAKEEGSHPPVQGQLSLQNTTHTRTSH

EC50 [nM]	SMILES
19	N#Cc1ccc(-c2cc(CN3CCN(C45CC(C4)C5)C(=O)C3=O)no2)cc1 [Example 423, 4-(3-((4-(bicyclo[1.1.1]pentan-1-yl)-2,3-dioxopiperazin-1-yl)methyl)isoxazol-5-yl)benzonitrile]
5	CC1(n2ccn(Cc3cc(-c4ccc(F)cc4)on3)c(=O)c2=O)CCC1 [Example 422, 1-((5-(4-fluorophenyl)isoxazol-3-yl)methyl)-4-(1-methylcyclobutyl)-1,4-dihydropyrazine-2,3-dione]
12	N#CC1CCC(n2ccn(Cc3nnc(-c4ccccc4)s3)c(=O)c2=O)C1 (stereo not shown) [Example 338, 3-(2,3-dioxo-4-((5-phenyl-1,3,4-thiadiazol-2-yl)methyl)-3,4-dihydropyrazin-1(2H)-yl)cyclopentane-1-carbonitrile]
14	O=C1C(=O)N(C2CCC2)CCN1Cc1ncc(-c2ccccn2)s1 [Example 376, 1-cyclobutyl-4-((5-(pyridin-2-yl)thiazol-2-yl)methyl)piperazine-2,3-dione]
24	O=C1C(=O)N(C2CCCC2)CCN1Cc1ccc(-n2nccn2)cc1F [Example 379, 1-cyclopentyl-4-(2-fluoro-4-(2H-1,2,3-triazol-2-yl)benzyl)piperazine-2,3-dione]
5	CC1(n2ccn(Cc3cc(-c4ccccc4)on3)c(=O)c2=O)CCC1 [Example 420, 1-(1-methylcyclobutyl)-4-((5-phenylisoxazol-3-yl)methyl)-1,4-dihydropyrazine-2,3-dione]
133	O=C1C(=O)N(C2CCCC2)CCN1Cc1ncc(-c2cc(F)ccn2)cn1 [Example 343, 1-cyclopentyl-4-((5-(4-fluoropyridin-2-yl)pyrimidin-2-yl)methyl)piperazine-2,3-dione]
5	O=C1C(=O)N([C@@H]2CC[C@@H](c3ccccc3)C2)CCN1Cc1nnc(-c2ccccc2)s1 (single isomer, unassigned) [Example 440A, (R or S, R or S)-1-((5-phenyl-1,3,4-thiadiazol-2-yl)methyl)-4-(3-phenylcyclopentyl)piperazine-2,3-dione]
28	O=C1C(=O)N(C2CCCC2)CCN1Cc1ccc(-c2ccccn2)nn1 [Example 368, 1-cyclopentyl-4-((6-(pyridin-2-yl)pyridazin-3-yl)methyl)piperazine-2,3-dione]
20	N#Cc1ccccc1-c1nnc(CN2CCN(C34CC(C3)C4)C(=O)C2=O)s1 [Example 436, 2-(5-((4-(bicyclo[1.1.1]pentan-1-yl)-2,3-dioxopiperazin-1-yl)methyl)-1,3,4-thiadiazol-2-yl)benzonitrile]

Continued, compound first:

SMILES	EC50 [nM]
O=C1C(=O)N(C23CC(F)(C2)C3)CCN1Cc1nnc(-c2ccccc2)s1 [Example 294, 1-(3-fluorobicyclo[1.1.1]pentan-1-yl)-4-((5-phenyl-1,3,4-thiadiazol-2-yl)methyl)piperazine-2,3-dione]	16
CC(c1ncc(-c2ccccc2)cn1)N1CCN(C2CCC2)C(=O)C1=O (single isomer, unassigned) [Example 134, (R or S)-1-cyclobutyl-4-(1-(5-phenylpyrimidin-2-yl)ethyl)piperazine-2,3-dione]	40
O=C1C(=O)N(C2CCCC2)CCN1Cc1ccc(-n2nccn2)cc1 [Example 140, 1-(4-(2H-1,2,3-triazol-2-yl)benzyl)-4-cyclopentylpiperazine-2,3-dione]	36
O=C1C(=O)N([C@H]2C[C@H]3C[C@H]3C2)CCN1Cc1nnc(-c2ccccc2F)s1 [Example 44, 1-((cis)-bicyclo[3.1.0]hexan-3-yl)-4-((5-(2-fluorophenyl)-1,3,4-thiadiazol-2-yl)methyl)piperazine-2,3-dione]	7
O=C1C(=O)N(C2CCCC2)CCN1Cc1ccc(-n2ccnn2)nn1 [Example 321, 1-((6-(1H-1,2,3-triazol-1-yl)pyridazin-3-yl)methyl)-4-cyclopentylpiperazine-2,3-dione]	21
O=c1c(=O)n(C2CCCC2)ccn1Cc1nnc(-c2ccccc2)s1 [Example 124, 1-cyclopentyl-4-((5-phenyl-1,3,4-thiadiazol-2-yl)methyl)-1,4-dihydropyrazine-2,3-dione]	7
O=C1C(=O)N(C23CC(C2)C3)CCN1Cc1ncc(-c2ccccc2)cn1 [Example 276, 1-(bicyclo[1.1.1]pentan-1-yl)-4-((5-phenylpyrimidin-2-yl)methyl)piperazine-2,3-dione]	26
N#CC1(n2ccn(Cc3cc(-c4ccccn4)no3)c(=O)c2=O)CC1 [Example 200, 1-(2,3-dioxo-4-((3-(pyridin-2-yl)isoxazol-5-yl)methyl)-3,4-dihydropyrazin-1(2H)-yl)cyclopropane-1-carbonitrile]	68
O=C1C(=O)N(C2CCC2)CCN1Cc1cc(-c2ccccn2)on1 [Example 138, 1-cyclobutyl-4-((5-(pyridin-2-yl)isoxazol-3-yl)methyl)piperazine-2,3-dione]	12
O=c1c(=O)n(C23CC(C2)C3)ccn1Cc1ccc(-c2cccnc2)nn1 [Example 85, 1-(bicyclo[1.1.1]pentan-1-yl)-4-((6-(pyridin-3-yl)pyridazin-3-yl)methyl)-1,4-dihydropyrazine-2,3-dione]	29
O=c1c(=O)n(C2CCC2)ccn1Cc1cc(-c2ccccc2F)on1 [Example 57, 1-cyclobutyl-4-((5-(2-fluorophenyl)isoxazol-3-yl)methyl)-1,4-dihydropyrazine-2,3-dione]	3
O=c1c(=O)n(C2CCCC2)ccn1Cc1cc(-c2cccc(F)c2)no1 [Example 155, 1-cyclopentyl-4-((3-(3-fluorophenyl)isoxazol-5-yl)methyl)-1,4-dihydropyrazine-2,3-dione]	2
O=c1c(=O)n([C@H]2C[C@H]3C[C@H]3C2)ccn1Cc1nnc(-c2cccc(F)c2)s1 [Example 43, 1-((cis)-bicyclo[3.1.0]hexan-3-yl)-4-((5-(3-fluorophenyl)-1,3,4-thiadiazol-2-yl)methyl)-1,4-dihydropyrazine-2,3-dione]	3
CC1(n2ccn(Cc3ccc(-c4ccccn4)cn3)c(=O)c2=O)CC1 [Example 88, 1-([2,3′-bipyridin]-6′-ylmethyl)-4-(1-methylcyclopropyl)-1,4-dihydropyrazine-2,3-dione]	69
O=C1C(=O)N(C2CCCC2)CCN1CCc1cc(-c2ccccc2)on1 [Example 119, 1-cyclopentyl-4-(2-(5-phenylisoxazol-3-yl)ethyl)piperazine-2,3-dione]	4
O=c1c(=O)n(C23CC(C2)C3)ccn1Cc1nnc(-c2cccc(F)c2)s1 [Example 144, 1-(bicyclo[1.1.1]pentan-1-yl)-4-((5-(3-fluorophenyl)-1,3,4-thiadiazol-2-yl)methyl)-1,4-dihydropyrazine-2,3-dione]	2
O=c1c(=O)n(C2CCC2)ccn1Cc1ccc(-c2ccccc2F)nc1 [Example 72, 1-cyclobutyl-4-((6-(2-fluorophenyl)pyridin-3-yl)methyl)-1,4-dihydropyrazine-2,3-dione]	2
N#CC1(n2ccn(Cc3ccc(-c4ccccn4)cn3)c(=O)c2=O)CC1 [Example 92, 1-(4-([2,3′-bipyridin]-6′-ylmethyl)-2,3-dioxo-3,4-dihydropyrazin-1(2H)-yl)cyclopropane-1-carbonitrile]	155
